Measurements taken from EP3593819A1, “COMPOSITIONS FOR THERAPEUTIC USES CONTAINING 5-HTP AND CARBIDOPA” (Medday Pharmaceuticals, priority 2018, dated 2020).
In brackets after ≈: the same amount, converted by molar mass. Like-named read-outs stand apart in the source and are kept apart here.

Legend:
[1] = Second wave of solubility testing with acidified vehicles and combinations; assay type: physicochemical; settings: 40% (w/v) HP-3-cyclodextrin + 38.4 mg/mL citric acid, pH2.0, compared to similar solution containing only 20% (w/v) HP-3-cyclodextrin
Experimental: Based on the outcome of these solubility tests, a second wave of solubility testing was performed, with acidified vehicles and combinations thereof.
The highest solubility was obtained in 40% (w/v) HP-3-cyclodextrin + 38.4 mg/mL citric acid, pH2.0, for both APIs (Active Pharmaceutical Ingredients). The marginal increase in solubility in this vehicle, compared to similar solution containing only 20% (w/v) HP-3-cyclodextrin is only -20% for 5-HTP and -40% for carbidopa. Therefore, and since dosing of HP-3-cyclodextrin is limited to about 8 - 16 g/day (for max. 14 days, short-term Phase I studies), it was foreseen to use the vehicle containing only 20% HP-b-cyclodextrin as the first choice for dosing safety reasons, i.e.: • for a 600 mg 5-HTP/60 mg carbidopa dose with a 30 mg/mL 5-HTP/3 mg/mL carbidopa solution in solvent A (40% HP-β-CD), 20 mL solution is required, corresponding with an intake of 8 g HP-β-CD, and; • for a 600 mg 5-HTP/60 mg carbidopa dose with a 30 mg/mL 5-HTP/3 mg/mL carbidopa solution in solvent B (20% HP-β-CD), 20 mL solution is required, corresponding with an intake of only 4 g HP-β-CD.

[2] = cited from earlier work
[3] = UV-measured solubility of 5-HTP and carbidopa; assay type: physicochemical
Experimental: The individual solubility of 5-HTP and carbidopa was assessed and compared to the data in the literature.
Table 2. Solubility results

[4] = Screening stress test study on separate reference solutions and a mix solution; assay type: physicochemical
Experimental: Stress studies were performed on the separated reference solutions and a mix solution under heat (60°C for 24 h), and under acidic, basic, or oxidative (H2O2) conditions, and ICH light (700 W/m^2 for 8 h) conditions.

[5] = 0.1N HCl, simulated gastric fluid, 0.1N HCI
[6] = 5% Soluplus in water, aqueous with cosolvent or surfactant or cyclodextrin
[7] = 10% w/v M-β-cyclodextrin in water (Kleptose crysmeb), aqueous with cosolvent or surfactant or cyclodextrin
[8] = 20% w/v HP-β-cyclodextrin in water (Kleptose), aqueous with cosolvent or surfactant or cyclodextrin, 20% w/v HP-β-cydodextrin in water (Kleptose)
[9] = Ethanol, organic solvent or mixture
[10] = Kolliphor RH40 (5% in water), aqueous with cosolvent or surfactant or cyclodextrin
[11] = PEG400, organic solvent or mixture
[12] = Polysorbate 20 (5% in water), aqueous with cosolvent or surfactant or cyclodextrin
[13] = Propylene glycol, organic solvent or mixture
[14] = Sepiclear (5% in water), aqueous with cosolvent or surfactant or cyclodextrin
[15] = Solutol HS15 (5% in water), aqueous with cosolvent or surfactant or cyclodextrin
[16] = Transcutol HP, organic solvent or mixture
[17] = oil or lipid, Labrafac lipophile, accurate measurement not possible due to diverging spectrum
[18] = oil or lipid, Sunflower oil, accurate measurement not possible due to diverging spectrum
[19] = pH 5, aqueous buffer, Phosphate buffer, pH5
[20] = pH 6.8, aqueous buffer, Phosphate buffer, pH6.8
[21] = pH 9, aqueous buffer, Phosphate buffer, pH9
[22] = separate solution, ICH light (700 W/m^2 for 8 h)
[23] = separate solution, acidic conditions, immediate, no further degradation after 24 h
[24] = separate solution, basic medium, after 24 h
[25] = separate solution, heat (60°C for 24 h)
[26] = separate solution, oxidative (H2O2) stress, T0 and T24h

Structure (SMILES) | marginal increase in solubility [1] [%] | solubility ([2]; Water) | solubility [3, 5] [µg/mL] | solubility [3, 6] [µg/mL] | solubility [3, 7] [µg/mL] | solubility [3, 8] [µg/mL] | solubility [3, 9] [µg/mL] | solubility [3, 10] [µg/mL] | solubility ([3]; Labrasol ALF, oil or lipid) [µg/mL] | solubility [3, 11] [µg/mL] | solubility [3, 12] [µg/mL] | solubility [3, 13] [µg/mL] | solubility [3, 14] [µg/mL] | solubility [3, 15] [µg/mL] | solubility [3, 16] [µg/mL] | solubility [3, 17] [µg/mL] | solubility [3, 18] [µg/mL] | solubility [3, 19] [µg/mL] | solubility [3, 20] [µg/mL] | solubility [3, 21] [µg/mL] | other results
N[C@@H](Cc1c[nH]c2ccc(O)cc12)C(=O)O [5-HTP, (2S)-2-amino-3-(5-hydroxy-1H-indol-3-yl)propanoic acid] | -20 | 1 - 10^(1) mg/mL | 29400 (≈ 133 mM) | 12400 (≈ 56.3 mM) | 13500 (≈ 61.3 mM) | 17000 (≈ 77.2 mM) | 5100 (≈ 23.2 mM) | 9500 (≈ 43.1 mM) | 4800 (≈ 21.8 mM) | 2300 (≈ 10.4 mM) | 9400 (≈ 42.7 mM) | 35400 (≈ 161 mM) | 14500 (≈ 65.8 mM) | 9000 (≈ 40.9 mM) | 13700 (≈ 62.2 mM) | < 10000 | < 10000 | 8400 (≈ 38.1 mM) | 8900 (≈ 40.4 mM) | 9300 (≈ 42.2 mM) | degradation ([4]; mix solution of 5-HTP and carbidopa, all stress conditions): mainly light and acidic stress influenced the degradation; degradation [4, 22]: about 15%; degradation [4, 23]: not sensitive; degradation [4, 24]: about 15%; degradation [4, 25]: not sensitive; degradation [4, 26]: not sensitive
C[C@@](Cc1ccc(O)c(O)c1)(NN)C(=O)O [Carbidopa, (2S)-3-(3,4-dihydroxyphenyl)-2-hydrazinyl-2-methylpropanoic acid] | -40 | 1 - 10 ^(2) mg/mL | 11800 (≈ 52.2 mM) | 12900 (≈ 57 mM) | 2800 (≈ 12.4 mM) | 3100 (≈ 13.7 mM) | 70 (≈ 0.309 mM) | 1500 (≈ 6.63 mM) | 12800 (≈ 56.6 mM) | 1500 (≈ 6.63 mM) | 1400 (≈ 6.19 mM) | 15000 (≈ 66.3 mM) | 3100 (≈ 13.7 mM) | 1400 (≈ 6.19 mM) | 600 (≈ 2.65 mM) | < 10000 | < 10000 | 1500 (≈ 6.63 mM) | 2100 (≈ 9.28 mM) | 4700 (≈ 20.8 mM) | solubility ([2]; 3N HCI): 100 - 1000 ^(3) mg/mL; solubility ([2]; Acetone): < 0.1 ^(3) mg/mL; solubility ([2]; Chloroform): < 0.1 ^(2) mg/mL; solubility ([2]; Ethanol): 0.1 - 1 ^(2) mg/mL; solubility ([2]; Ether): < 0.1 ^(3) mg/mL; solubility ([2]; Methanol): 1 - 10 ^(3) mg/mL; solubility ([2]; Methylene chloride): < 0.1 ^(3) mg/mL; degradation [4, 22]: about 88%; degradation [4, 23]: more than 20%; degradation [4, 24]: about 30%; degradation [4, 25]: 90%; degradation [4, 26]: did not influence; stability in solution ([4]; stress studies, overall): very unstable in solution and is quickly degraded
